The values that follow come from US4452812A, “Organic complex of platinum, its preparation and its use for treating malignant tumors” (Sanofi, priority 1980, dated 1984).

In data set [1] the test system is leukemia L 1210. Description: Anti-tumour activity, leukemia L 1210, i.p. graft, i.p. treatment. As for the experimental part:
[…] females (CNRS, Orleans) of 20 to 22 g
(a) i.p. graft--i.p. treatment
10^5 cells were grafted intraperitoneally on D0 and intraperitoneal treatment was carried out 24 hours later, D1, in one single injection.
PHD and PHM were suspended in a 4% Klucel (hydroxy propyl cellulose) solution (the word "Klucel" is a registered trademark of Hercules Incorporated, Delaware, U.S.A.).
The solutions of these compounds were prepared extemporaneously. The increase in life span, ILS (%), were calculated in comparison with the controls by the following formula: [formula] Deaths were recorded until day 30 for L 1210 tumour and until day 60 for S180 tumour.

The test system of data set [2] is sarcoma S 180. Kind of data set: Anti-tumour activity, sarcoma S 180 ascite, i.p. graft, i.p. treatment. Type of data set: in vivo, mouse (Swiss female). The note with it: for ILS: single i.p. on D1. As for the experimental part:
Swiss female mice (Evic-Ceba, Bordeaux) of 20 to 22 g
10^6 cells intraperitoneally grafted on D0
intraperitoneal treatment 24 hours later, D1, in one single injection.
(§1) The solutions of these compounds were prepared extemporaneously.

The subject of data set [3] is DNA. Description: Platinum fixed on DNA of L 1210 cells in vivo. On the set-up: species or system mouse (DBA/2). The note with it: PDD 9 mg/kg, PHIC 150 mg/kg; two hours after treatment on D3. How it is done: DBA/2 mice received 10^6 L 1210 cells on D0 and were treated three days later with an amount of platinum compound equal to the LD0 in the healthy mouse. Two hours after treatment on D3, the animals were sacrificed. […] Platinum was monitored by atomic absorption for whole cells and also on the DNA which was purified by phenol extraction. […] Under these conditions, one fixed platinum atom per 3000 nucleotides was found, i.e. a total of 1% of the amount which penetrated the cells was complexed to DNA. […] 10^-16 of platinum per cell.

The subject of data set [4] is L 1210 cells. Description: Cytotoxicity on L 1210 cells in culture. The class given is cell-based. The note with it: read-out: ID50 (reduces by 50% the rate of growth of the cells); usually 24 to 48 hours contact.
Data set [5] has as its system abdominal viscera. Kind of data set: Peritonitis (adhesion and hardening of abdominal viscera). Type of data set: in vivo, mouse. How it is done: as §1
As discussed above this problem seems to be linked to the presence of the 1,2-diaminocyclohexane ligand.

The test system of data set [6] is renal and hepatic parenchyma. Description: Renal and hepatic toxicity. The class given is in vivo, mouse (Swiss female). How it is done: It was thus of interest to compare the effects of the novel compound of the invention with those of the already known compounds listed above on the kidney and the liver, i.e. the organs in which the greatest amount of platinum accumulates.
Swiss female mice (Evic-Ceba, Bordeaux) of 20 to 22 g were treated by intraperitoneal route D0 and then sacrificed on D1, D4 and D10.
Slices 5 microns thick were coloured with hemalun eosine stain.

Data set [7] deals with mouse. Description: Acute toxicity in the mouse. The class given is in vivo, mouse (Swiss female). The settings on record: mouse, one single injection. As for the experimental part: Acute toxicity, one single injection of the compound, was measured using Swiss female mice (Evic-Ceba, Bordeaux) of 21 to 23 g. and Sprague-Dawley rats. Ten animals were treated for each dose studied.

The nature of data set [8]: Stability in sodium chloride solution. The class given is physicochemical. The note with it: 9% sodium chloride. How it is done: This compound has an exceptionally high degree of solubility.
as §1

Where [9] appears, read: L 1210, 4 mg/kg i.p. on D1, day 30.
Where [10] appears, read: S 180, 4 mg/kg i.p. on D1, day 60.
Where [11] appears, read: S 180, 1 mg/kg i.p. on D1, day 60.
Where [12] appears, read: S 180, 2 mg/kg i.p. on D1, day 60.
Where [13] appears, read: S 180, 5 mg/kg i.p. on D1, day 60.
[14] abbreviates: S 180, 10 mg/kg i.p. on D1, day 60.
Setting [15] is: S 180, 50 mg/kg i.p. on D1, day 60.

For orientation: ILS means how much longer treated animals lived than controls. A high value points to much gain in survival. With `N.N.[Cl][Pt][Cl]` [PDD, cis-dichlorodiammine platinum (II)], the ILS in data set [1] (2 mg/kg, single i.p. on D1) came to 28%; in data set [1] (4 mg/kg, single i.p. on D1) it was 52%; in data set [1] (6 mg/kg, single i.p. on D1), 75%; in data set [1] (8 mg/kg, single i.p. on D1) it was 106%; in data set [2] (4 mg/kg), 41%; in data set [2] (8 mg/kg), 65%. The Survivals in data set [1] (setting [9]) stood at 0%; in data set [1] (L 1210, 6 mg/kg i.p. on D1, day 30), 0%; in data set [1] (L 1210, 8 mg/kg i.p. on D1, day 30), 0%; in data set [2] (setting [10]), 0%; in data set [2] (S 180, 8 mg/kg i.p. on D1, day 60) it was 0%. In addition, the “Surviving animals having received L 1210 leukaemia and S 180 sarcoma” value in data set [1] (summary for L 1210 and S 180) is “No”. Further, the “Number of fixed platinum atoms per nucleotide on DNA” value in data set [3] is listed as 1/30000. Further, in data set [3], the “amount that penetrated the cells which was complexed to DNA” value was found to be 1%. Besides, the “nucleotides per one fixed platinum atom” value in data set [3] is 3000 nucleotides. The IC50 in data set [4] stood at 2330 nM. The “occurrence of peritonitis in relation to the 1,2-diaminocyclohexane ligand” value (shortened to “occurrence of peritonitis in relation”) in data set [5] (mouse, in vivo, ip) was “never observed”.
Regarding `NC1CCCCC1N.[Cl][Pt][Cl]` (stereo not drawn) [PHD, CIS-DICHLORO(1,2-DIAMINOCYCLOHEXANE) PLATINUM (II)], the ILS is listed as 5% in data set [1] (1 mg/kg, single i.p. on D1); 49% in data set [1] (2 mg/kg, single i.p. on D1); 65% in data set [1] (4 mg/kg, single i.p. on D1); 100% in data set [2] (1 mg/kg); 128% in data set [2] (2 mg/kg); 127% in data set [2] (4 mg/kg). In addition, the Survivals stood at 0% in data set [1] (L 1210, 1 mg/kg i.p. on D1, day 30); 0% in data set [1] (L 1210, 2 mg/kg i.p. on D1, day 30); 0% in data set [1] (setting [9]); 0% in data set [2] (setting [11]); 20% in data set [2] (setting [12]); 10% in data set [2] (setting [10]). Besides, the “renal and hepatic alterations” value in data set [6] (mouse, in vivo, ip) is “vascular alterations without any hyaline casts”. Also, the “LD0 (maximum nonlethal dose)” value in data set [7] is 7 mg/kg. The IC50 in data set [4] turned out to be 130 nM. Besides, the “occurrence of peritonitis in relation” value in data set [5] (mouse, in vivo, ip) is “seems to be correlated with the presence of 1,2-diaminocyclohexane”.
`NC1CCCCC1N.O=C([O-])CC(=O)[O-].[Pt+2]` (stereo not drawn) [PHM, cis-malonato (1,2 diaminocyclohexane) platinum (II)]: the ILS is reported as 103% in data set [1] (50 mg/kg, single i.p. on D1); 25% in data set [2] (5 mg/kg); 36% in data set [2] (10 mg/kg); 44% in data set [2] (20 mg/kg); 60% in data set [2] (40 mg/kg); 96% in data set [2] (50 mg/kg). The Survivals in data set [1] (L 1210, 50 mg/kg i.p. on D1, day 30) is 10%; in data set [2] (setting [13]), 0%; in data set [2] (setting [14]), 0%; in data set [2] (S 180, 20 mg/kg i.p. on D1, day 60), 0%; in data set [2] (S 180, 40 mg/kg i.p. on D1, day 60), 0%; in data set [2] (setting [15]), 0%. Further, the “renal and hepatic alterations” value in data set [6] (mouse, in vivo, ip) is “These alterations were observed”. The IC50 in data set [4] came to 390 nM. Moreover, the “occurrence of peritonitis in relation” value in data set [5] (mouse, in vivo, ip) is recorded as “seems to be correlated with the presence of 1,2-diaminocyclohexane”. Moreover, in data set [5] (mouse, in vivo, ip), the peritonitis result is “most of the mice reaching 30 days of survival treatment with PHM and PHIC developed peritonitis”.
Regarding `NC1CCCCC1N.O.O=S(=O)([O-])[O-].[Pt+2]` (stereo not drawn) [PHS, cis-sulfatomonoaquo(1,2 diaminocyclohexane) platinum (II)], the ILS in data set [1] (5 mg/kg, single i.p. on D1) came to 112%; in data set [2] (0.5 mg/kg), 4%; in data set [2] (1 mg/kg), 10%; in data set [2] (2 mg/kg) it was 25%; in data set [2] (4 mg/kg) it was 47%; in data set [2] (5 mg/kg) it was 112%. Besides, the Survivals in data set [1] (L 1210, 5 mg/kg i.p. on D1, day 30) was 40%; in data set [2] (S 180, 0.5 mg/kg i.p. on D1, day 60), 0%; in data set [2] (setting [11]), 0%; in data set [2] (setting [12]) it was 0%; in data set [2] (setting [10]), 0%; in data set [2] (setting [13]), 10%. Also, the “change to chlorinated derivative in sodium chloride solution” value in data set [8] was “almost instantaneously to the formation of a yellow insoluble chlorinated compound”. In addition, the “renal and hepatic alterations” value in data set [6] (i.p. at ~LD0 (mg/kg): PDD 8, PAC 100, PHM 50, PHD 4, PHS 5, PHC 120, PHIC 150, D1, D4, D10) was “vascular dilation and proximal distorted tubules”. For the same compound, in data set [4], the IC50 was determined as 190 nM. In data set [5] (i.p.), the “occurrence of peritonitis in relation” value was “seems to be correlated with the presence of 1,2-diaminocyclohexane”.
Compound “cis-(t-aconitato) (1,2-diaminocyclohexane) platinum (II) [PHTA, reference compound]” showed an increase in lifespan (ILS) in data set [1] (500 mg/kg, single injection on D1) of 13%. Besides, the “LD0 (maximum nonlethal dose)” value in data set [7] is recorded as more than 500 mg/kg.
In the case of “cis-citrato (1,2-diaminocyclohexane) platinum (II) [PHC]”, the increase in lifespan (ILS) is listed as 90% in data set [1] (120 mg/kg, single i.p. on D1, with 5 mice only); 20% in data set [2] (10 mg/kg); 124% in data set [2] (25 mg/kg); 121% in data set [2] (50 mg/kg). Moreover, the Survivals in data set [1] (L 1210, 120 mg/kg i.p. on D1, day 30) is given as 0%; in data set [2] (setting [14]), 0%; in data set [2] (S 180, 25 mg/kg i.p. on D1, day 60) it was 20%; in data set [2] (setting [15]), 30%. Also, the “renal and hepatic alterations” value in data set [6] (mouse, in vivo, ip) is recorded as “did not provoke any significant alterations”. For the same compound, the “occurrence of peritonitis in relation” value in data set [5] (mouse, in vivo, ip) is listed as “seems to be correlated with the presence of 1,2-diaminocyclohexane”.
For cis-citratodiammineplatinum (II) [PAC], in data set [1] (100 mg/kg, single injection on D1), the ILS was found to be 17%. Also, in data set [6] (mouse, in vivo, ip), the “renal and hepatic alterations” value is “These alterations were observed”. In addition, in data set [7], the “LD0 (maximum nonlethal dose)” value turned out to be 125 mg/kg. Also, the “occurrence of peritonitis in relation” value in data set [5] (mouse, in vivo, ip) is “never observed”.
Compound “cis-isocitratodiammineplatinum(II) [PAIC]” came in with an ILS in data set [1] (75 mg/kg, single injection on D1) of 74%. In addition, the “LD0 (maximum nonlethal dose)” value in data set [7] is listed as 75 mg/kg. Moreover, the “occurrence of peritonitis in relation” value in data set [5] (mouse, in vivo, ip) is “never observed”.
